What follows are molecules tested on BJAB cells (assay: BJAB cell proliferation (Cell Titer Glo)). Conditions: Homo sapiens, read-out: EC50.
Format: cell-based
Outline: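 BJAB cells exposed to serially diluted compounds (0.1% DMSO final) for about 72 h at 37 °C. Proliferation read by Cell Titer Glo luminescence as percent of untreated controls; EC50 from non-linear regression of dose-response data.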
Molecule `Cc1nn(-c2nc(-c3cncc(F)c3)c(SC(C)C)s2)c(C(=O)O)c1-c1cccc(F)c1` [Compound 233, 4-(3-fluorophenyl)-1-(4-(5-fluoropyridin-3-yl)-5-(isopropylthio)thiazol-2-yl)-3-methyl-1H-pyrazole-5-carboxylic Acid] has an EC50 of over 40 µM.
With `Cc1nn(-c2nc(-c3coc4ccccc34)c(SC(C)C)s2)c(C(=O)O)c1-c1cccc(F)c1` [Compound 234, 1-(4-(benzofuran-3-yl)-5-(isopropylthio)thiazol-2-yl)-4-(3-fluorophenyl)-3-methyl-1H-pyrazole-5-carboxylic Acid] the EC50 was over 40 µM.
Work on `Cc1nn(-c2nc(-c3ccc(C(F)(F)F)cc3)c(SC(C)C)s2)c(C(=O)O)c1-c1ccc(F)c(F)c1` [Compound 235, 4-(3,4-difluorophenyl)-1-(5-(isopropylthio)-4-(4-(trifluoromethyl)phenyl)thiazol-2-yl)-3-methyl-1H-pyrazole-5-carboxylic acid] yielded an EC50 of under 1 µM.
Molecule `Cc1cc(-c2c(C)nn(-c3nc(-c4ccc(C(F)(F)F)cc4)c(SC(C)C)s3)c2C(=O)O)ccc1F` [Compound 236, 4-(4-fluoro-3-methylphenyl)-1-(5-(isopropylthio)-4-(4-(trifluoromethyl)phenyl)thiazol-2-yl)-3-methyl-1H-pyrazole-5-carboxylic Acid] has an EC50 of 1 to 5 µM.
For `Cc1nn(-c2nc(-c3ccc(C(F)(F)F)cc3)c(SC(C)C)s2)c(C(=O)O)c1-c1ccc(F)cc1` [Compound 237, 4-(4-fluorophenyl)-1-(5-(isopropylthio)-4-(4-(trifluoromethyl)phenyl)thiazol-2-yl)-3-methyl-1H-pyrazole-5-carboxylic acid], the EC50 was 1 to 5 µM.
For `COc1cc(-c2c(C)nn(-c3nc(-c4ccc(C(F)(F)F)cc4)c(SC(C)C)s3)c2C(=O)O)ccc1F` [Compound 238, 4-(4-fluoro-3-methoxyphenyl)-1-(5-(isopropylthio)-4-(4-(trifluoromethyl)phenyl)thiazol-2-yl)-3-methyl-1H-pyrazole-5-carboxylic acid], the EC50 was 1 to 5 µM.
Molecule `Cc1cc(Cl)cc(C)c1-c1nc(-n2nc(C)c(-c3cccc(F)c3)c2C(=O)O)sc1SC(C)C` [Compound 239, 1-(4-(4-chloro-2,6-dimethylphenyl)-5-(isopropylthio)thiazol-2-yl)-4-(3-fluorophenyl)-3-methyl-1H-pyrazole-5-carboxylic Acid] has an EC50 of 5 to 10 µM.
`Cc1nn(-c2nc(-c3ccc(C(C)(F)F)cc3)c(SC(C)C)s2)c(C(=O)O)c1-c1cccc(F)c1` [Compound 240, 1-(4-(4-(1,1-difluoroethyl)phenyl)-5-(isopropylthio)thiazol-2-yl)-4-(3-fluorophenyl)-3-methyl-1H-pyrazole-5-carboxylic acid] showed an EC50 of 1 to 5 µM.
In the case of `Cc1cc(-c2c(C)nn(-c3nc(-c4ccc(C(F)(F)F)cc4)c(SC(C)C)s3)c2C(=O)O)cc(C)c1F` [Compound 241, 4-(4-fluoro-3,5-dimethylphenyl)-1-(5-(isopropylthio)-4-(4-(trifluoromethyl)phenyl)thiazol-2-yl)-3-methyl-1H-pyrazole-5-carboxylic acid], the EC50 is reported as under 1 µM.
`Cc1nn(-c2nc(-c3cnc(C(F)(F)F)nc3)c(SC(C)C)s2)c(C(=O)O)c1-c1cccc(F)c1` [Compound 242, 4-(3-fluorophenyl)-1-(5-(isopropylthio)-4-(2-(trifluoromethyl)pyrimidin-5-yl)thiazol-2-yl)-3-methyl-1H-pyrazole-5-carboxylic Acid] gave an EC50 of 5 to 10 µM.
Molecule `CCNC(=O)c1cc(-c2nc(-n3nc(C)c(-c4cccc(F)c4)c3C(=O)O)sc2SC(C)C)ccc1Cl` [Compound 243, 1-(4-(4-chloro-3-(ethylcarbamoyl)phenyl)-5-(isopropylthio)thiazol-2-yl)-4-(3-fluorophenyl)-3-methyl-1H-pyrazole-5-carboxylic Acid] has an EC50 of over 40 µM.
`Cc1nn(-c2nc(-c3ccc(C(F)(F)F)cc3N)c(SC(C)C)s2)c(C(=O)O)c1-c1cccc(F)c1` [Compound 244, 1-(4-(2-amino-4-(trifluoromethyl)phenyl)-5-(isopropylthio)thiazol-2-yl)-4-(3-fluorophenyl)-3-methyl-1H-pyrazole-5-carboxylic Acid] showed an EC50 of 1 to 5 µM.
Work on `Cc1nn(-c2nc(C#Cc3ccc(C(F)(F)F)cc3)c(SC(C)C)s2)c(C(=O)O)c1-c1cccc(F)c1` [Compound 245, 4-(3-fluorophenyl)-1-(5-(isopropylthio)-4-((4-(trifluoromethyl)phenyl)ethynyl)thiazol-2-yl)-3-methyl-1H-pyrazole-5-carboxylic acid] yielded an EC50 of 10 to 25 µM.
For `Cc1nn(-c2nc(-c3ncc(C(F)(F)F)cn3)c(SC(C)C)s2)c(C(=O)O)c1-c1cccc(F)c1` [Compound 246, 4-(3-fluorophenyl)-1-(5-(isopropylthio)-4-(5-(trifluoromethyl)pyrimidin-2-yl)thiazol-2-yl)-3-methyl-1H-pyrazole-5-carboxylic Acid], the EC50 was 10 to 25 µM.
With `Cc1nn(-c2nc(-c3ccc(C(F)(F)F)cc3)cs2)c(C(=O)O)c1-c1cccc(F)c1` [Compound 247, 4-(3-fluorophenyl)-3-methyl-1-(4-(4-(trifluoromethyl)phenyl)thiazol-2-yl)-1H-pyrazole-5-carboxylic acid] the EC50 was 10 to 25 µM.
`COCCN(C)C(=O)c1c(-c2cccc(F)c2)c(C)nn1-c1nc(-c2ccc(C(F)(F)F)cc2)c(SC(C)C)s1` [Compound 248, 4-(3-fluorophenyl)-1-(5-(isopropylthio)-4-(4-(trifluoromethyl)phenyl)thiazol-2-yl)-N-(2-methoxyethyl)-N,3-dimethyl-1H-pyrazole-5-carboxamide] was tested, and the EC50 was over 20 µM.
For `Cc1nn(-c2nc(-c3ccc(C(F)(F)F)cc3)c(SC(C)C)s2)c(C(=O)NCCOCCOCCOCCN=[N+]=[N-])c1-c1cccc(F)c1` [Compound 249, N-(2-(2-(2-(2-azidoethoxy)ethoxy)ethoxy)ethyl)-4-(3-fluorophenyl)-1-(5-(isopropylthio)-4-(4-(trifluoromethyl)phenyl)thiazol-2-yl)-3-methyl-1H-pyrazole-5-carboxamide], the EC50 was over 20 µM.
In the case of `COCCNC(=O)c1c(-c2cccc(F)c2)c(C)nn1-c1nc(-c2ccc(C(F)(F)F)cc2)c(SC(C)C)s1` [Compound 250, 4-(3-fluorophenyl)-1-(5-(isopropylthio)-4-(4-(trifluoromethyl)phenyl)thiazol-2-yl)-N-(2-methoxyethyl)-3-methyl-1H-pyrazole-5-carboxamide], the EC50 is reported as 10 to 25 µM.
For `CCCS(=O)(=O)NC(=O)c1c(-c2cccc(F)c2)c(C)nn1-c1nc(-c2ccc(C(F)(F)F)cc2)c(SC(C)C)s1` [Compound 251, 4-(3-fluorophenyl)-1-(5-(isopropylthio)-4-(4-(trifluoromethyl)phenyl)thiazol-2-yl)-3-methyl-N-(propylsulfonyl)-1H-pyrazole-5-carboxamide], the EC50 was over 20 µM.
With `Cc1nn(-c2nc(-c3ccccc3C(F)(F)F)c(SC(C)C)s2)c(C(=O)O)c1-c1cccc(F)c1` [Compound 252, 4-(3-fluorophenyl)-1-(5-(isopropylthio)-4-(2-(trifluoromethyl)phenyl)thiazol-2-yl)-3-methyl-1H-pyrazole-5-carboxylic acid] the EC50 was 10 to 25 µM.
With `Cc1nn(-c2nc(-c3cccc(C(F)(F)F)c3)c(SC(C)C)s2)c(C(=O)O)c1-c1cccc(F)c1` [Compound 253, 4-(3-fluorophenyl)-1-(5-(isopropylthio)-4-(3-(trifluoromethyl)phenyl)thiazol-2-yl)-3-methyl-1H-pyrazole-5-carboxylic acid] the EC50 was 5 to 10 µM.
For `Cc1nn(-c2nc(-c3ccc(C(F)(F)F)cc3)c(NC(C)C)s2)c(C(=O)O)c1-c1cccc(F)c1` [Compound 254, 4-(3-fluorophenyl)-1-(5-(isopropylamino)-4-(4-(trifluoromethyl)phenyl)thiazol-2-yl)-3-methyl-1H-pyrazole-5-carboxylic acid], the EC50 was 5 to 10 µM.
In the case of `Cc1nn(-c2nc(-c3ccc(S(F)(F)(F)(F)F)cc3)c(SC(C)C)s2)c(C(=O)O)c1-c1cccc(F)c1` [Compound 255, 4-(3-fluorophenyl)-1-(5-(isopropylthio)-4-(4-(pentafluoro-λ^6-sulfaneyl)phenyl)thiazol-2-yl)-3-methyl-1H-pyrazole-5-carboxylic acid], the EC50 is reported as under 1 µM.
Molecule `CONC(=O)c1c(-c2cccc(F)c2)c(C)nn1-c1nc(-c2ccc(C(F)(F)F)cc2)c(SC(C)C)s1` [Compound 256, 4-(3-fluorophenyl)-1-(5-(isopropylthio)-4-(4-(trifluoromethyl)phenyl)thiazol-2-yl)-N-methoxy-3-methyl-1H-pyrazole-5-carboxamide] has an EC50 of 10 to 25 µM.
`Cc1nn(-c2nc(-c3ccc(CC(F)(F)F)cc3)c(SC(C)C)s2)c(C(=O)O)c1-c1cccc(F)c1` [Compound 257, 4-(3-fluorophenyl)-1-(5-(isopropylthio)-4-(4-(2,2,2-trifluoroethyl)phenyl)thiazol-2-yl)-3-methyl-1H-pyrazole-5-carboxylic acid] gave an EC50 of 1 to 5 µM.
For `Cc1nn(-c2nc(-c3ccc(C(F)(F)F)nc3)c(SC(C)C)s2)c(C(=O)O)c1-c1cccc(F)c1` [Compound 258, 4-(3-fluorophenyl)-1-(5-(isopropylthio)-4-(6-(trifluoromethyl)pyridin-3-yl)thiazol-2-yl)-3-methyl-1H-pyrazole-5-carboxylic acid], the EC50 was 1 to 5 µM.
With `Cc1nn(-c2nc(-c3cnn(CC(F)(F)F)c3)c(SC(C)C)s2)c(C(=O)O)c1-c1cccc(F)c1` [Compound 259, 4-(3-fluorophenyl)-1-(5-(isopropylthio)-4-(1-(2,2,2-trifluoroethyl)-1H-pyrazol-4-yl)thiazol-2-yl)-3-methyl-1H-pyrazole-5-carboxylic acid] the EC50 was 10 to 25 µM.
